Assay results from patent US9126891B2, “Cycloalkyl-diamines” (MediSynergics, LLC, priority 2014, dated 2015).

How the values were obtained:
[1] = tested on: T. brucei brucei clone 427-221a (bloodstream forms); assay: T. brucei brucei growth inhibition assay (CellTiter-Glo ATP bioluminescence); assay type: cell-based; settings: 40 hours incubation, 95% Confidence Intervals in parentheses, read-out: T. b. brucei IC50
Procedure: The growth inhibition assay for T. brucei brucei was conducted as described previously by Z. B. Mackey (Kenny K. H. Ang, Joseline Ratnam, Jiri Gut, Jennifer Legac, Elizabeth Hansell, Zachary B. Mackey, Katarzyna M. Skrzypczynska, Anjan Debnath, Juan C. Engel, Philip J. Rosenthal, James H. McKerrow, Michelle R. Arkin, Adam R. Renslo (2010) “Mining a Cathepsin Inhibitor Library for New Antiparasitic Drug Leads”, PLoS Neglected Tropical Diseases, 5(5):e1023). Bloodstream forms of the monomorphic T. brucei brucei clone 427-221a were grown in complete HMI-9 medium containing 10% FBS, 10% Serum Plus medium (Sigma Inc., St. Louis, Mo., USA), 50 U/mL penicillin and […] streptomycin (Invitrogen) at 370 C under a humidified atmosphere and 5% CO2. […] of each dilution was added to […] of diluted parasites ([…]) in sterile Greiner 96-well flat white opaque culture plates such that the final DMSO concentration was 0.5%. The 0% inhibition control wells contained 0.5% DMSO while 100% inhibition control wells contained 50 mM thimerosal (Sigma-Aldrich, St. Louis, Mo.). After compound addition, plates were incubated for 40 hours at 370 C. At the end of the incubation period, […] of CellTiter-Glo™ reagent (Promega Inc., Madison, Wis., USA) was added to each well and plates were placed on an orbital shaker at room temperature for 2 min to induce lysis. After an additional 10 min of incubation without shaking, to stabilize the signal, the ATP-bioluminescence of each well was determined using an Analyst HT Plate Reader (Molecular Devices, Sunnyvale, Calif., USA). Raw values were converted to log 10 and percentage inhibition calculated relative to the controls. IC50 curve fittings were performed with Prism 4 software as above. Pentamidine was used as a comparator in the assay.

P. falciparum strain 3D7 = assay: Plasmodium falciparum activity assay (SYBR Green I method); assay type: cell-based; settings: strain 3D7 in human erythrocytes, 72 h incubation
Procedure: P. falciparum strain 3D7 was cultured according to the method of Trager and Jensen (W. Trager, J. B. Jensen (1976) “Human malaria parasites in continuous culture”, Science, 193(4254):673-5) with minor modifications. Parasites were grown in human erythrocytes (2% hematocrit) in an atmosphere of 5% CO2, 5% O2, 90% N2 in RPMI 1640 medium (Gibco) supplemented with 25 mM hepes buffer (Sigma), 25 mg/L gentamicin (Gibco, Life Technologies, Grand Island, N.Y.), 1 mM sodium pyruvate (Sigma), 50 mg/L hypoxanthine (Sigma), 2 g/L glucose (Sigma), 2.52 g/L sodium bicarbonate (Sigma) and 5 g/L Albumax 1 (Gibco). In vitro antimalarial activity was determined by the SYBR Green I method described by Smilkstein (Smilkstein M, Sriwilaijaroen N, Kelly J X, Wilairat P, Riscoe M. (2004) “Simple and inexpensive fluorescence-based technique for high-throughput antimalarial drug screening”. Antimicrob. Agents Chemother., 48(5):1803-6. PMCID: 400546) with modifications (see Winter R W, Kelly J X, Smilkstein M J, Dodean R, Bagby G C, Rathbun R K (2006) “Evaluation and lead optimization of anti-malarial acridones”. Exp. Parasitol., 114(1):47-56). […] After incubation for 1 h at room temperature in the dark, plates were read on a Safire2 (Tecan) plate reader with excitation and emission wavelengths of […], respectively. […]

SMILES | IC50 [1] [µM] | IC50 (P. falciparum strain 3D7) [µM]
CN[C@@]1(c2ccccc2Cl)CCCC[C@H]1NCCCc1ccccc1 (relative stereo) [Example 15b, Cis-1-(2-chlorophenyl)-N^2-(3-phenylpropyl)-N^1-methylcyclohexane-1,2-diamine] | 4.6 | 2.5
CN[C@@]1(c2ccccc2Cl)CCCC[C@H]1NCCCN1CCOCC1 (relative stereo) [Example 16b, Cis-1-(2-chlorophenyl)-N^2-(3-(morpholin-1-yl)propyl)-N^1-methylcyclohexane-1,2-diamine] | 1.7 | 18
CN[C@]1(c2ccccc2Cl)CCCC[C@H]1NCCCn1ccnc1 (relative stereo) [Example 12a, Trans-1-(2-chlorophenyl)-N^2-(3-(1-imidazolyl)-propyl)-N^1-methylcyclohexane-1,2-diamine] | 16 | 
